From PMC6207618, “The GbsR Family of Transcriptional Regulators: Functional Characterization of the OpuAR Repressor” (Frontiers in Microbiology, 2018)
“Also recorded” adds a separate entry of the source. Where two headings read alike, the source gives them in different places.

Assays:
[1] = tested on: opuAA-treA reporter activity; assay: opuAA-treA reporter fusion TreA enzyme activity assay; assay type: cell-based, Bacillus subtilis; conditions: strain STHB10 (OpuAR+), SMM with 1.2 M NaCl, 1 mM compatible solute
Text: opuAAB.infantis′-treA reporter gene fusions were constructed using primers opuAR treA Frag1/2 rev and either opuAR treA Frag1/4 for (Supplementary Table S2) to amplify a 1940-bp DNA fragment from chromosomal DNA of B. infantis NRRL B-14911, including the predicted opuA promoter region and the coding region of opuAR, or primer opuAR treA Frag2 for, to generate a fragment lacking the opuAR gene. PCR products, which had been cut with BamHI and SmaI, were cloned into the vector pJMB1 ([Hoffmann et al., 2013]). This vector carries a promoterless treA gene, whose gene product [phospho-α-(1,1)-glucosidase] can be assayed and photometrically quantitated with the chromogenic substrate α-PNPG ([Gotsche and Dahl, 1995]). The plasmids resulting for the construction of the treA transcriptional reporter gene fusions were named pSTH33 (opuAR^+/opuAAB.i-treA) and pSTH34 (opuAR^-/opuAAB.i-treA) (Supplementary Table S3). All treA reporter gene fusions were stably integrated as a single copy into the chromosome of various B. subtilis strains at the amyE gene; all of these strains carry a gene disruption mutation of the native chromosomal treA gene of B. subtilis to allow the assignment of the measured TreA enzyme activity to the reporter gene constructs (Supplementary Table S1).
Aliquots (1.5 ml) from cultures of B. subtilis strains carrying chromosomal opuAAB.i′-treA reporter operon gene fusions (Supplementary Table S1) were used to monitor the expression levels by assaying the TreA reporter enzyme activity as described previously using the chromogenic substrate α-PNPG ([Gotsche and Dahl, 1995]). The TreA-specific activity is expressed in units per milligram of protein. Protein concentrations were estimated from the optical density of the cell culture harboring the treA reporter operon gene fusion ([Miller, 1972]).
FIGURE 6 Influence of the B. subtilis GbsR-like regulators on the expression of opuA from B. infantis and its transcriptional response to the presence of compatible solutes. (A) Genetic structure of the opuAA-treA transcriptional reporter fusions. (B) The opuAA-treA reporter gene fusions, either including or lacking the B. infantis opuAR gene, were integrated into the chromosome of the B. subtilis strain STHB05; it carries gene disruption mutations of all three GbsR-like regulators, resulting in strains STHB10 (OpuAR^+) and STHB11 (OpuAR^-). […] The opuAA-treA reporter strains were grown in SMM to early exponential growth phase (OD578 1–1.5) and then assayed for TreA reporter enzyme activity. The shown data represent four independent biological replicates and each culture was assayed twice. (C) Strain STHB10 (opuAR^+/opuAA-treA) was grown in SMM with increasing NaCl concentrations until each of these cultures reached mid-exponential growth phase (OD578 of about 1.5) and were then harvested for TreA reporter enzyme activity assays. The given data are the means and standard deviations of four independent biological replicates and each culture was assayed twice. (D) Expression of the opuAA-treA reporter gene construct in response to extracellular provided compatible solutes. The opuAA-treA reporter fusion strains STHB10 (OpuAR^+) and STHB11 (OpuAR^-) were cultivated in SMM containing 1.2 M NaCl either in the absence or presence of 1 mM of the indicated compatible solutes. The opuAA-treA reporter fusion strains were grown to early exponential growth phase (OD578 1–1.5) and then assayed for TreA reporter enzyme activity. The given data are the means and standard deviations of four independent biological replicates and each culture was assayed twice.
To identify possible effector molecules for the B. infantis OpuAR protein, we conducted a series of in vivo experiments in which we assessed any possible inducing effects of compatible solutes on opuAA-treA transcriptional activity in an OpuAR-dependent fashion (Figure 6D).

OpuAR = OpuAR (Bacillus infantis, UniProt U5LJR5); assay: Intrinsic tryptophan fluorescence ligand binding, purified OpuAR (wild type)
Sequence of OpuAR (U5LJR5 entry or part of it): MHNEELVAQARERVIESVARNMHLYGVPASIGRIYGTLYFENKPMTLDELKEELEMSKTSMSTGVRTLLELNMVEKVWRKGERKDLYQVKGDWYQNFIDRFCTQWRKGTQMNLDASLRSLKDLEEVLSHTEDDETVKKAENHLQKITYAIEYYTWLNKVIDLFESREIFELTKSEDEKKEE
Protocol: Overproduction of the OpuAR repressor protein and its mutant derivatives was carried out in the E. coli B strain BL21 harboring plasmid pMP_AR1, a derivative of the expression vector pASK-IBA3plus (IBA, Göttingen, Germany) (Supplementary Table S3). […] De-repression of P-tet promoter activity is achieved by adding the synthetic inducer AHT to the growth medium. Cultures of the E. coli B. strain BL21 (pMP_AR1) were inoculated (to a OD578 of 0.1) from pre-cultures prepared in MMA ([Miller, 1972]) supplemented with 0.5% glucose (wt/vol) as the carbon source, 0.5% casamino acids (wt/vol), 1 mg l^-1 thiamine, and 1 mM MgSO4. The cultures also contained ampicillin (100 μg ml^-1) to select for the presence of plasmid pMP_AR1 (or its mutant derivatives) and they were grown at 37°C. When the main cultures reached an OD578 of 0.5, enhanced expression of the opuAR gene from P-tet was induced by the addition of AHT to a final concentration of 0.2-μg ml^-1. Cells were grown for an additional 2 h, before they were harvested by centrifugation (at 4°C at 4,800 × g for 20 min). […]
The dissociation constants of OpuAR for choline and glycine betaine were determined by intrinsic tryptophan fluorescence spectroscopy as described previously using a Carry Eclips fluorescence spectrometer (Varian, Surry, United Kingdom) ([Pittelkow et al., 2011]; [Nau-Wagner et al., 2012]).

B. subtilis GbsR protein = molecular target: B. subtilis GbsR protein; design: method as in Nau-Wagner et al., 2012; conditions: purified B. subtilis GbsR, ref Nau-Wagner et al., 2012, cited from earlier work

CN(C)CC(=O)O [DMG, dimethlyglycine]
Induction of opuAA-treA reporter activity (OpuAR-dependent) [1]: did not serve as inducers

C[S+](C)CCC(=O)[O-] [DMSP, dimethylsulfoniopropionate]
Induction of opuAA-treA reporter activity (OpuAR-dependent) [1]: did not serve as inducers

C[N+](C)(C)CCO [choline]
Kd (OpuAR): 193 ± 40 µM | Kd (B. subtilis GbsR protein; intrinsic Trp-fluorescence): 165 ± 15 µM | Induction of opuAA-treA reporter activity (OpuAR-dependent) [1]: served as inducers; also recorded: induced

C[N+](C)(C)CC(=O)[O-] [glycine betaine]
Kd (OpuAR; purified OpuAR-Strep-tag II wild type, 5 μM protein, read-out: Kd): 301 ± 24 µM | Binding by GbsR (B. subtilis GbsR protein): does not bind | Induction of opuAA-treA reporter activity (OpuAR-dependent) [1]: served as inducers; also recorded: induced

C[N+](C)(C)CCC(=O)[O-] [homobetaine]
Induction of opuAA-treA reporter activity (OpuAR-dependent) [1]: did not serve as inducers

C[N+]1(C)CCC[C@H]1C(=O)[O-] [proline betaine]
Induction of opuAA-treA reporter activity (OpuAR-dependent) [1]: served as inducers; also recorded: induced
